Patent US20070134261A1, “Effectors of innate immunity” (priority 2001, published 2007)
Read-outs that look alike come from different tables or passages of the source. No end group written: not given here.

Legend:
[1] = tested on: human PBMC; experiment: TLR agonist / cytokine induced cytokine secretion by PBMC (ELISA, multiplex bead immunoassay); assay type: cell-based
Experimental: All assays were performed in triplicate.

[2] = tested on: human bronchial epithelial cells (HBE); experiment: LDH release assay (Cytotoxicity Detection Kit); assay type: cell-based; details: 24 hours; for LDH Release (OD490 nm): 100 μg/ml, no peptide control 1.0 ± 0.05; for toxicity / membrane damage: as measured by both assays (LDH, WST-1), HBE cells
Experimental: (§1) The potential toxicity of the peptides was measured in two ways. First, the Cytotoxicity Detection Kit (Roche) (Lactate dehydrogenase-LDH) Assay was used. It is a colorimetric assay for the quantification of cell death and cell lysis, based on the measurement of LDH activity released from the cytosol of damaged cells into the supernatant. LDH is a stable cytoplasmic enzyme present in all cells and it is released into the cell culture supernatant upon damage of the plasma membrane. An increase in the amount of dead or plasma membrane-damaged cells results in an increase of the LDH enzyme activity in the culture supernatant as measured with an ELISA plate reader, OD490 nm (the amount of color formed in the assay is proportional to the number of lysed cells). In this assay, human bronchial epithelial cells (I6HBEo14, HBE) cells were incubated with 100 μg of peptide for 24 hours, the supernatant removed and tested for LDH. The other assay used to measure toxicity of the cationic peptides was the WST-1 assay (Roche). This assay is a colorimetric assay for the quantification of cell proliferation and cell viability, based on the cleavage of the tetrazolium salt WST-1 by mitochondrial dehydrogenases in viable cells (a non-radioactive alternative to the [^3H]-thymidine incorporation assay). In this assay, HBE cells were incubated with 100 μg of peptide for 24 hours, and then 10 μl/well Cell Proliferation Reagent WST-1 was added. The cells are incubated with the reagent and the plate is then measured with an ELISA plate reader, OD490 nm.

[3] = tested on: HBE cells; experiment: WST-1 assay (cell viability); assay type: cell-based, human
Experimental: as §1

[4] = assay type: cell-based
[5] = tested on: A549 epithelial cells; experiment: Human Operon arrays (PRHU04-S1) of A549 cells treated with peptide alone (Tables 31-37, 53); details: peptide 50 μg/ml, 4 h, A549 cells

| Substance | LDH Release (OD490 nm) [2] | OD490 nm (WST-1 cell viability) [3] | MIC, C. rhod. ([4]; 24 h) | MIC, E. coli ([4]; 24 h) | MIC, EHEC ([4]; 24 h) | MIC, P. aerug. ([4]; 24 h) | MIC, S. aureus ([4]; 24 h) | MIC, S. typhim. ([4]; 24 h) | other results |
| --- | --- | --- | --- | --- | --- | --- | --- | --- | --- |
| TNF-α |  |  |  |  |  |  |  |  | IL-1β, Ave pg/ml ([1]; 4 hr, TNF-α −SEQ ID NO: 1): 74 pg/mL; IL-8, Ave pg/ml ([1]; 4 hr, TNF-α −SEQ ID NO: 1): 54 pg/mL; IL-1β, Ave pg/ml ([1]; 24 hr, TNF-α −SEQ ID NO: 1): 94 pg/mL; IL-6, Ave pg/ml ([1]; 24 hr, TNF-α −SEQ ID NO: 1): 9 pg/mL; IL-8, Ave pg/ml ([1]; 24 hr, TNF-α −SEQ ID NO: 1): 4410 pg/mL |
| 5′-TCATGACGTTCCTGACGTT-3′ (chemistry not given here) [CpG, reference compound] |  |  |  |  |  |  |  |  | IL-6, Ave pg/ml ([1]; 4 hr, CpG −SEQ ID NO: 1): <7 pg/mL; IL-8, Ave pg/ml ([1]; 4 hr, CpG −SEQ ID NO: 1): 20 pg/mL; TNF-α, Ave pg/ml ([1]; 4 hr, CpG −SEQ ID NO: 1): 28 pg/mL; IL-6, Ave pg/ml ([1]; 24 hr, CpG −SEQ ID NO: 1): 66 pg/mL; IL-8, Ave pg/ml ([1]; 24 hr, CpG −SEQ ID NO: 1): 339 pg/mL; TNF-α, Ave pg/ml ([1]; 24 hr, CpG −SEQ ID NO: 1): 28 pg/mL |
| RPRYPWWPWWPYRPRK [SEQ ID NO: 19] | 1.08 ± 0.02 OD490 nm | 1.42 ± 0.15 OD490 nm | 4 µg/mL | 8 µg/mL | 4 µg/mL | 16 µg/mL | 16 µg/mL | 64 µg/mL | ID#:ctrl intensity ratio, X65962 cytochrome P-450 [5]: 3.8 |
| RPAWKYWWPWPWPRRK [SEQ ID NO: 22] | 1.29 ± 0.12 OD490 nm | 1.33 ± 0.07 OD490 nm | 4 µg/mL | 8 µg/mL | 4 µg/mL | 24 µg/mL | 12 µg/mL | 8 µg/mL | ID#:ctrl intensity ratio, X65962 cytochrome P-450 [5]: 5.1 |
| IL-1β |  |  |  |  |  |  |  |  | IL-6, Ave pg/ml ([1]; 4 hr, IL-1β −SEQ ID NO: 1): 39 pg/mL; IL-8, Ave pg/ml ([1]; 4 hr, IL-1β −SEQ ID NO: 1): 124 pg/mL; TNF-α, Ave pg/ml ([1]; 4 hr, IL-1β −SEQ ID NO: 1): 97 pg/mL; IL-6, Ave pg/ml ([1]; 24 hr, IL-1β −SEQ ID NO: 1): 645 pg/mL; IL-8, Ave pg/ml ([1]; 24 hr, IL-1β −SEQ ID NO: 1): 3034 pg/mL; TNF-α, Ave pg/ml ([1]; 24 hr, IL-1β −SEQ ID NO: 1): 20 pg/mL |
| ELPLKRGRVPVE [SEQ ID NO: 16] | 0.91 ± 0.04 OD490 nm | 1.39 ± 0.26 OD490 nm |  |  |  |  |  |  | ID#:ctrl intensity ratio, M14565 cytochrome P450 [5]: 10.1 |
| LSRIAPAIPWAKL [SEQ ID NO: 10] | 1.04 ± 0.04 OD490 nm | 1.22 ± 0.05 OD490 nm |  |  | 64 µg/mL |  |  |  |  |
| KMKSFAKMLMLALKKVLKVLTTALTLKAGLPS [SEQ ID NO: 43] | 4.3 ± 0.2 OD490 nm | 0.46 ± 0.10 OD490 nm | 8 µg/mL | 8 µg/mL | 4 µg/mL | 16 µg/mL | 128 µg/mL | 16 µg/mL | toxicity / membrane damage [2]: did induce membrane damage |
| KCKLFKKMLMLALKKVLTTGLPALKLTK [SEQ ID NO: 40] | 2.8 ± 0.5 OD490 nm | 0.46 ± 0.06 OD490 nm |  |  |  |  |  |  | toxicity / membrane damage [2]: did induce membrane damage; MIC, C. rhod. ([4]; Citobacter rhodensis, overnight, 96-well plate): 4 µg/mL; MIC, EHEC ([4]; Enterohaemorrhagic E. coli, overnight, 96-well plate): 2 µg/mL; MIC, E. coli ([4]; Escherichia coli, overnight, 96-well plate): 4 µg/mL; MIC, P. aerug. ([4]; Pseudomonas aeruginosa, overnight, 96-well plate): 8 µg/mL; MIC, S. typhim. ([4]; Salmonella enteritidis ssp. typhimurium, overnight, 96-well plate): 4 µg/mL; MIC, S. aureus ([4]; Staphylococcus aureus, overnight, 96-well plate): 32 µg/mL |
| RRAWWKAWWARRK [SEQ ID NO: 20] | 1.05 ± 0.03 OD490 nm | 1.61 ± 0.21 OD490 nm | 16 µg/mL | 8 µg/mL | 8 µg/mL | 8 µg/mL | 8 µg/mL | 8 µg/mL |  |
| RRRWKWAWPRRK [SEQ ID NO: 24] | 1.05 ± 0.01 OD490 nm | 1.27 ± 0.16 OD490 nm | 16 µg/mL | 16 µg/mL | 4 µg/mL | 4 µg/mL | 16 µg/mL | 16 µg/mL |  |
| RKMVKVDVRGIMIRKDRR [SEQ ID NO: 29] | 0.99 ± 0.02 OD490 nm | 1.75 ± 0.09 OD490 nm | 32 µg/mL | 2 µg/mL | 4 µg/mL |  |  | 16 µg/mL |  |
